# Experiments:
# [1] = test system: Embryonic hippocampal neurons; assay: Neurite (axon) lengths in primary embryonic hippocampal neuron cultures; type: cell-based, rat; conditions: 10 nM, primary hippocampal cell cultures in rats at 72 hr, mean
# Description: Embryonic hippocampal neurons were obtained from rat pups on embryonic day 18.5 (“El8.5”), according to Banker and Cowan (Brain Research, 1977, 126: 397425). Briefly, the hippocampal regions were removed, minced, and incubated in 100 I.U. papain at 37° C. for 45 min, and the cells were resuspended in complete neuronal medium: minimal essential medium without L-glutamine (GIBCO, Grand Island, NY), 1.5 ml/100 ml medium of high glucose minimal essential medium (GIBCO), 0.1 ml/100 ml medium of serum extender (Hito +Tm; Collaborative Research Inc, Lexington, Mass.), glutamine (GIBCO), 5% fetal calf serum (GIBCO). Cells were seeded onto coverslips (500 cells/coverslip) coated with poly-L-lysine. The coverslips were inverted onto dishes that had been precoated with a monolayer of cortical astrocytes. Hippocampal neurons (identified by their characteristic polarity and dendrites) were examined daily and randomly photographed (9-12 frames/coverslip) at 72 h. Axon (defined as the longest process) lengths were measured on photographic prints using a Houston Instrument HI-PAD digitizing tablet connected to an IBM XT computer with appropriate software (Bioquant IV, R & M Biometrics, Nashville, TN); only processes more than three-fold of the cell body length were measured. Data from identically treated coverslips (three or four per group) were not different and therefore were combined.
# [2] = test system: Mixed lymphocyte reaction (MLR); assay: Mixed lymphocyte reaction (MLR); type: cell-based; conditions: for IC50: Lymphocyte, in vitro
# Description: MLR test was performed according to a similar manner to that of U.S. Pat. No. 4,929,611
# [3] = test system: SH-SY5Y human neuroblastoma cells; assay: Neurite lengths in NGF-treated SH-SY5Y neuroblastoma cells; type: cell-based; conditions: NGF 10 ng/ml alone; SH-SY5Y cells at 168 hr; mean
# Description: SH-SY5Y human neuroblastoma cells were maintained in DMEM medium (GIBCO) supplemented with 10% fetal calf serum (SIGMA), 50 I.U./ml of penicillin, and 50μg/ml streptomycin (GIBCO) at 37° C. in 7% CO2. Cells were plated in six-well plates at 15,000 cells/well and treated with 0.4 μM aphidicolin (SIGMA). […] Medium was changed at 96 h and replaced with fresh medium for an additional 72 h (total time, 168 h). Duplicate wells were run in all experiments and the data were averaged for each treatment group. Analysis of neurite lengths in SH-SY5Y neuroblastoma cells:
# For analysis of process length, cells (20 fields per well) were randomly photographed at 168 h. Neurite lengths were measured on photographic prints using a Houston Instrument HI-PAD digitizing tablet connected to an IBM XT computer with appropriate software (Bioquant IV, R & M Biometrics, Nashville, Tenn.); only those processes greater than two-fold of the cell body length were measured. Data from identically treated wells were not different and were therefore combined.
# [4] = test system: sciatic nerve crush; assay: Functional recovery in the rat sciatic nerve crush model (semi-quantitative behavioral score); type: in vivo; conditions: scale 0-4
# Description: Nine 6-week-old male Sprague-Dawley rats were anesthetized with 2% halothane, the right sciatic nerve was exposed, and the nerve was crushed twice (for a total of 60 s using a No.7 Dumont jeweler's forceps) at the level of the hip. The crush site was marked by tying a sterile 9-0 suture through the epineurial sheath.
# Compound (Ia) was dissolved in vehicle comprising 30% dimethylsulfoxide (DMSO):70% saline. Three axotomized rats received subcutaneous daily injections either Compound (Ia) (1 or 5 mg/kg) or an equivalent volume of vehicle (30% DMSO in saline) (5ml/kg)
# Animals were examined daily until the day of perfusion (18 days). The following semi-quantitative scale was used to evaluate the functional recovery of the animals:
# 0: paralysis with the foot turned-out upon walking and the toes curved;
# 1: ability to right the foot and move the toes;
# 2: ability to constantly walk on the foot;
# For the behavioral analysis, mean values for recovery of function were compared using one-way ANOVA followed by the Newman-Keuls multiple comparisons test for comparison of individual values. For the morphometric analysis, mean values for the number of axons were compared using one-way ANOVA followed by the Newman Keuls multiple comparisons test for comparison of individual values.
# [5] = target: FKBP12 (Homo sapiens, UniProt P62942); assay: Binding assay to FKBP12; conditions: in vitro
# Description: The binding assay was performed according to a similar manner to that of Tamura, K., et al (Biochemical arid Biophysical Research Communications, Vol. 202, No. 1, 437-499, 1994).
# Sequence of FKBP12 (P62942 whole entry, species assumed): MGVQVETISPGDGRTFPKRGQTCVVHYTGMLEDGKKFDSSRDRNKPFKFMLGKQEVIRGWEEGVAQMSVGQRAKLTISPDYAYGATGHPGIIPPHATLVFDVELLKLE
IC50 [2] [nM],IC50 [5] [nM],Molecule,Neurite Lengths [1] [μm],Neurite Lengths ([1]; listed as tacrolimus),Neurite Lengths [3] [μm],"Functional Score ([4]; 1 mg/kg s.c. daily, Day 15)","Functional Score ([4]; 1 mg/kg s.c. daily, Day 16)","Functional Score ([4]; 1 mg/kg s.c. daily, Day 17)","Functional Score ([4]; 5 mg/kg s.c. daily, Day 15)","Functional Score ([4]; 5 mg/kg s.c. daily, Day 16)","Functional Score ([4]; 5 mg/kg s.c. daily, Day 17)",immunosuppressive activity ([2]; conclusion in words from MLR result)
< 2,,"C=CC[C@@H]1/C=C(\C)C[C@H](C)C[C@H](OC)[C@H]2O[C@@](O)(C(=O)C(=O)N3CCCC[C@H]3C(=O)O[C@H](/C(C)=C/[C@@H]3CC[C@@H](O)[C@H](OC)C3)[C@H](C)[C@@H](O)CC1=O)[C@H](C)C[C@@H]2OC [Tacrolimus, tacrolimus]",423.4 ± 19.50,no significant difference,,,,,,,,
,,"NGF: nerve growth factor, used at 10 ng/ml to induce process outgrowth",,,198.8 ± 8.991,,,,,,,
> 100,< 5,CO[C@H]1C[C@@H](C)C/C(C)=C/C(CC(C)=O)C(=O)C[C@H](O)[C@@H](C)[C@@H](/C(C)=C/[C@@H]2CC[C@@H](O)[C@H](OC)C2)OC(=O)[C@@H]2CCCCN2C(=O)C(=O)[C@]2(O)OC1[C@@H](OC)C[C@H]2C (stereo partly shown) [Compound (Ia)],,,,2.58 ± 0.17,2.83 ± 0.17,3.08 ± 0.22,3.17 ± 0.08,3.50 ± 0.00,3.50 ± 0.00,does not have immunosuppressive activity

# Reference: US20040077676A1 (priority 2003, published 2004)
